Measured values as given in patent US5965539A, “Inhibitors of prenyl transferases” (Univeristy of Pittsburgh, priority 1996, dated 1999).
pIC50: −log10 of the molar value. Like-named read-outs stand apart in the source and are kept apart here.

Key:
[1] = test system: H-Ras processing; experiment: Ras processing assay in H-RasF cells (NIH 3T3 transformed with oncogenic H-Ras-CVLS), immunoblot; type: cell-based; conditions: for pIC50: Mus musculus, NIH3T3, whole cells
Method: (§1) H-RasF cells (45) were seeded on day 0 in 100 mm Dishes (costar) in Dulbecco's modified Eagles medium (GIBCO) and allowed to grow to 40-60% confluency. […] On day 3, cells were washed one time with ice cold PBS and were collected and lysed by incubation for 30-60 min on ice in lysis buffer (41). Lysates were cleared (14,000 rpm, 4° C., 15 min) and supernatants collected. Equal amounts of lysate were separated on a 12.5% SDS-PAGE, transfered to nitrocellulose, and a western blot performed using a anti-Ras antibody (Y13-238, ATCC) or anti-Rap1A antibody (Santa Cruz Biotechnology, Santa Cruz, Calif.). Antibody reactions were visualized using peroxidase-conjugated goat anti-rat IgG for Y13-238 and peroxidase-conjugated goat anti-rabbit IgG for Rap1A and an enhanced chemiluminescence detection system (ECL; Amersham Corp.)
(§2) H-Ras cells (45) and K-Ras4B Cells (32) were kind gifts from Dr. Channing Der and Dr. Adrienne Cox (University of North Carolina, Chapel Hill). Means of obtaining these cell lines will be easily recognized by the skilled practitioner. Cells were seeded on day 0 in 100 mm dishes in Dulbecco's modified Eagles medium supplemented with 10% calf serum and 1% penicillin-streptomycin. […] On day 3, cells were washed and lysed in lysis buffer containing 50 mM HEPES, pH 7.5, 10 mM NaCl, 1% TX-100, 10% glycerol, 5 mM MgCl2, 1 mM EGTA, 25 μg/ml leupeptin, 2 mM PMSF, 2 mM Na3 VO4, 1 mg/ml soybean trypsin inhibitor, 10 μg/ml aprotinin, 6.4 mg/ml Sigma-104® phosphatase substrate. Lysates were cleared (14,000 rpm, 4° C., 15 min) and equal amounts of protein were separated on a 12.5% SDS-PAGE, transferred to nitrocellulose, and immunoblotted using an anti-Ras antibody (Y13-259, ATCC) or an anti-RapIA antibody (SC-65, Santa Cruz Biotechnology, Santa Cruz, Calif.). Antibody reactions were visualized using either peroxidase-conjugated goat anti-rat 1 gG (for Y13-259), or peroxidase-conjugated goat anti-rabbit 1 gG (for Rap1A) and an enhanced chemiluminescence detection (ECL, Amersham Corp.), as described previously (41).

[2] = test system: Rap1A processing; experiment: Rap1A processing assay in NIH 3T3 cells overexpressing oncogenic H-Ras, immunoblot; type: cell-based; conditions: whole cells; for pIC50: Mus musculus, NIH3T3
Method: as §1, §2

[3] = test system: K-Ras4B processing; experiment: K-Ras4B processing assay in NIH 3T3 cells overexpressing oncogenic K-Ras4B; type: cell-based; conditions: for pIC50: Mus musculus, NIH3T3, whole cells
Description: H-Ras cells (45) and K-Ras4B Cells (32) were kind gifts from Dr. Channing Der and Dr. Adrienne Cox (University of North Carolina, Chapel Hill). Means of obtaining these cell lines will be easily recognized by the skilled practitioner.

[4] = test system: oncogenic H-Ras activation of MAPK; experiment: Oncogenic H-Ras activation of MAP kinase, immunoblot; type: cell-based; conditions: 0-30 μM, FIG. 20
Description: (§3) Equal amounts of protein were separated on a 15% SDS-PAGE, transferred to nitrocellulose, and immunoblotted using an anti-MAP kinase antibody (erk2, monoclonal, UB1, Lake Placid, N.Y.). Antibody reactions were visualized using peroxidase-conjugated donkey anti-mouse IgG (Jackson ImmunoResearch Laboratories Inc., West Grove, Pa.) and an enhanced chemiluminescence detection system (ECL, Amersham Corp.)

[5] = test system: oncogenic K-Ras4B activation of MAP kinase; experiment: Oncogenic K-Ras4B activation of MAP kinase, immunoblot; type: cell-based
Description: as §3

[6] = test system: K-Ras4B transformed NIH-3T3 cells; experiment: Nude mouse xenograft, K-Ras4B transformed NIH-3T3 cells; type: in vivo, nude mice; conditions: for tumor size: two weeks
Method: In contrast, tumors from animals treated once daily with GGTI-286 (25 mg/kg or 50 mg/kg) grew to a size of 1600 mm^3 or 900 mm^3, respectively (FIG. 22).

[7] = target: T1, GGTase I (Homo sapiens, UniProt P53609); experiment: GGTase I activity assay: transfer of [3H]geranylgeranyl to recombinant H-Ras-CVLL, Daudi 60,000xg supernatant; type: biochemical
T1 construct: FTase and GGTase I activities from 60,000×g supernatants of human Burkitt lymphoma (Daudi) cells; endogenous in cells; host or cells: human Burkitt lymphoma (Daudi) cells, 60,000xg supernatant (partially purified)
T1 sequence (P53609 whole entry): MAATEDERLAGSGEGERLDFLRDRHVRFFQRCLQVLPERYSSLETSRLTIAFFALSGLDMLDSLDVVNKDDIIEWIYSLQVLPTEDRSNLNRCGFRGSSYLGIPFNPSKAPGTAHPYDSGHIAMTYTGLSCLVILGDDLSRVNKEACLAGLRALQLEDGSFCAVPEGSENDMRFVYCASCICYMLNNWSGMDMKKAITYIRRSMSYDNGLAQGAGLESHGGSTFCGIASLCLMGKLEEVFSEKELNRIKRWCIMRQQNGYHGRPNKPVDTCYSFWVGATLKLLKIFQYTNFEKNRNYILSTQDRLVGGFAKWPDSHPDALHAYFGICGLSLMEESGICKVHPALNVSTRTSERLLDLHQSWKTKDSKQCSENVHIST
Method: FTase and GGTase I activities from 60,000×g supernatants of human Burkitt lymphoma (Daudi) cells (ATCC, Rockville, Md., USA) were assayed as described previously for FTase (41). Briefly, 100 μg of the supernatant was incubated in 50 mM Tris, pH 7.5, 50 μM ZnCl2, 20 mM KCl and 1 mM dithiothreitol (DTT). The reaction was incubated at […] for 30 min with recombinant Ha-Ras-CVLS (11 μM) and [^3 H]FPP (625 nM; 16.3 Ci/mmol) for FTase, and recombinant Ha-Ras-CVLL (5 μM) and [^3 H]geranylgeranylpyrophosphate (525 nM; 19.0 Ci/mmol) for GGTase I. The peptidomimetics were mixed with FTase and GGTase before adding to the reaction mixture.
Human Burkitt lymphoma (Daudi) cells (ATCC, Rockville, Md.) were grown in suspension in RPMI 1640 medium containing 10% fetal bovine serum (FBS) and 1% Pen-Strep in a humidified 10% CO2 incubator at 37° C. The cells were harvested and sonicated in 50 mM Tris, pH 7.5, 1 mM EDTA, 1 mM EGTA, 25 μg/ml leupeptin, 1 mM phenylmethylsulfonyl fluoride. Homogenates were then spun at 12,000×g and the resulting supernatant further spun at 60,000×g. The supernatant was assayed for both FTase and GGTase I. Briefly, 100 μg of the supernatants was incubated in 50 mM Tris, pH 7.5, 50 μM ZnCl2, 20 mM KCl, 3 mM MgCl2 and 1 mM DTT. For FTase assays, the reaction was incubated at 37° C. for 30 minutes with recombinant H-Ras-CVLS (11 μM) and [^3 H] FPP (625 nM; 16.3 Ci/mmol). For GGTase assays, the reaction was also incubated for 30 minutes at 37° C. but with recombinant H-Ras-CVLL (5 μM) and [^3 H] GGPP (525 nM; 19.0 Ci/mmol). The reaction was stopped and passed through glass fiber filters to separate free and incorporated label. For inhibition studies, the peptidomimetics were premixed with FTase or GGTase I prior to adding the remainder of the reaction mixture. Recombinant H-Ras-CVLS was prepared as described previously (26) from bacteria (31). Recombinant H-Ras-CVLL was prepared from bacteria (32).
FTase and GGTase I activities from 60,000×g supernatants of human Burkitt lymphoma (Daudi) cells (ATCC, Rockville, Md.) were assayed exactly as described previously for FTase (41). Inhibition studies were performed by determining the ability of Ras CAAX peptidomimetics to inhibit the transfer of [^3 H]-farnesyl and [^3 H]-geranylgeranyl from [^3 H]FPP and [^3 H]GGPP to H-ras-CVLS and H-Ras-CVLL, respectively (41).

[8] = test system: Calu-1 human lung carcinoma
Description: (§4) Calu-1 (Panel A) and NCI-H810 cells (Panel B) were purchased from ATCC and grown in McCoy's 5A medium in 10% FBS (Fetal Bovine Serum) and RPMI 1640 in 10% FBS, respectively. The cells were harvested, resuspended in PBS and injected s.c. into the right and left flank of 8 week old female nude mice (10^7 cells/flank). Nude mice (Harlan Sprague Dawley, Indianapolis, Ind.) were maintained in accordance with the Institutional Animal Care and Use Committee (IACUC) procedures and guidelines. On day 32 after s.c. implantation of tumors, animals were dosed i.p. with 0.2 ml once daily for 36 days. […] The tumor volumes were determined by measuring the length (l) and the width (w) and calculating the volume (V=(l)×(w)^2 /2). Data are presented as the average volume of eight tumors in each group for each cell line. Statistical significance between control and treated groups were evaluated by using student t test (*P<0.05).
(§5) In this model, tumors from two human lung carcinoma cell lines are implanted subcutaneously. One of these (Calu-1) harbors a K-Ras oncogenic mutation and has a deletion of the tumor suppressor gene p53. The other human lung carcinoma ([…]) has no Ras mutations.

[9] = test system: NCI-H810 human lung carcinoma; conditions: 50 mg/kg once daily, 14 days of treatment
Description: as §4

[10] = test system: H-RasF transformed NIH 3T3 cells
Method: (§6) A. Antitumor efficacy was carried out as described in FIG. 3 except that animals were randomly assigned to four groups each of 4 mice each (2 tumors per mouse). […] B. Ras processing was carried out 5 hours after the last treatement on day 17. Tumors were extracted from the animals, tissumized, and lysed in lysis buffer as described in FIG. 1. Lysates (25 μg) were electrophoresed on a 12.5% SDS-PAGE and immunoblotted with anti-Ras antibody Y13-238 as described previously. The blots were then reprobed with anti-Rap1A antibody (Santa Cruze Biotechnologies, Santa Cruz, Calif.).
(§7) The tumor sizes at the end of 17 days were 2490 mm^3 for saline, 1793 mm^3 for 10 mg/kg, 1226 mm^3 for 50 mg/kg and 624 mm^3 for 100 mg/kg treated animals. […] Tumors from control animals contained only fully processed Ras which migrates faster in SDS-PAGE gels (FIG. 11B). […] Thus, the extent of tumor growth inhibition correlated with the extent of inhibition of Ras processing.

[11] = test system: Rap1A processing; conditions: 100 mg/kg
Method: as §6, §7

[12] = test system: Ras processing; conditions: 10 to 100 mg/kg, 5 hrs after last injection
Method: as §6, §7

[13] = Description: as §5
[14] = test system: Raf-transformed NIH 3T3 cells; conditions: 50 mg/kg once daily

COC(=O)[C@H](CC(C)C)NC(=O)c1ccc(NC[C@@H](N)CS)cc1-c1ccccc1.Cl [GGTI-286, 4-[2(R)-amino-3-mercaptopropyl]amino-2-phenylbenzoyl-(S)-leucine methyl ester hydrochloride]
concentration needed for accumulation of unprocessed H-Ras ([1]; FIG. 18): ≥ 30 µM
pIC50 ([1]; Table 5, read-out: In Vivo Processing IC50 H-Ras): < 4.52
pIC50 ([1]; read-out: H-Ras processing IC50): < 4.52
pIC50 ([2]; Table 5, read-out: In Vivo Processing IC50 Rap1A): 5.70
pIC50 ([2]; read-out: Rap1A processing IC50): 5.70
selectivity for inhibition of geranylgeranylation over farnesylation processing [2]: more than 15 fold
concentrations inhibiting K-Ras4B processing that had no effect on processing of farnesylated H-Ras [3]: 1 to 3 µM
pIC50 ([3]; Table 5, read-out: In Vivo Processing IC50 K-Ras): 5.70
pIC50 ([3]; read-out: K-Ras4B processing IC50): 5.70
inhibition of oncogenic H-Ras activation of MAP kinase [4]: inhibited only slightly
concentration of complete block of K-Ras4B MAP kinase activation [5]: 10 µM
pIC50 ([5]; read-out: IC50, inhibition of K-Ras4B MAP kinase activation): 6.00
inhibition of tumor growth ([6]; 25 mg/kg once daily): 50%
tumor size ([6]; 25 mg/kg once daily): 1600 mm^3
inhibition of tumor growth ([6]; 50 mg/kg once daily): 70%
tumor size ([6]; 50 mg/kg once daily): 900 mm^3

CSCC[C@H](NC(=O)c1ccc(NC[C@@H](N)CS)cc1-c1ccccc1)C(=O)O [FTI-276, 4-N-[2(R)-Amino-3-mercaptopropyl]amino-2-phenylbenzoyl methionine]
pIC50 ([7]; Table 1, read-out: GGTase I IC50): 7.24
pIC50 ([7]; Table 5, read-out: In Vitro IC50 GGTase I): 7.30
pIC50 ([7]; read-out: GGTase I IC50): 7.30
average tumor size ([8]; 50 mg/kg i.p. once daily, 64 days from tumor implantation): 113 mm^3
tumor growth of Calu-1 ([8]; 50 mg/kg once daily): essentially blocked tumor growth
average tumor size [9]: 815 mm^3
tumor size at the end of 17 days ([10]; 10 mg/kg): 1793 mm^3
tumor size at the end of 17 days ([10]; 50 mg/kg): 1226 mm^3
tumor growth of H-RasF transformed NIH 3T3 cells ([10]; 50 mg/kg once daily): inhibited tumor growth
tumor size at the end of 17 days ([10]; 100 mg/kg): 624 mm^3
Rap1A processing in tumors [11]: did not inhibit Rap1A processing
Ras processing in tumors [12]: progressive accumulation of unprocessed Ras
weight loss ([13]; 50 mg/kg once daily for 36 days): no weight loss was observed
toxicity ([13]; dose escalated to 180 mg/kg once daily): lack of toxicity
growth of Raf-transformed NIH 3T3 cells [14]: had no effect
